Literature values in US12427123B2, “Phenylephrine hydrochloride compositions and containers” (Endo Operations Limited, priority 2020, dated 2025).
Read-outs that look alike come from different tables or passages of the source.

Tests used:
[1] = not given; remark: listed apart in the source

Row | dose excreted unchanged in the urine (in vivo) [%] | α-phase half-life (intravenous administration, 2-compartment model, distribution from central compartment) [min] | optical stability (racemization as a function of pH) ([1]; solutions at pH 3.0 and pH 6.0) | solubility ([1]; chloroform) | solubility ([1]; ethanol) | solubility ([1]; ethyl ether) | solubility ([1]; water) | Structure (SMILES)
1 | 12 | < 5 | optically stable |  |  |  |  | CNC[C@H](O)c1cccc(O)c1 [phenylephrine]
2 |  |  |  | insoluble | freely soluble | insoluble | very soluble | CNC[C@H](O)c1cccc(O)c1.Cl [Phenylephrine hydrochloride]
